Laboratory results published in patent US20240130988A1, “Use of stilbene compounds in the preparation of anti-tumor drugs” (Guangzhou AnHao Pharmaceutical Technology CO., LTD., priority 2022, published 2024).
Each block holds one molecule with its values, some of them ahead of it.

How the values were obtained:
[1] = system: human liver cancer Bel7404; assay: Compound 3 combined with lenvatinib, human liver cancer Bel7404 xenograft in nude mice; format: in vivo; conditions: po: lenvatinib 10 mg/kg, compound 3 400 mg/kg, combination 10 + 400
From the text: Experimental method: The model of human liver cancer Bel7404 transplant tumor in nude mice was established by subcutaneously inoculating human liver cancer Bel7404 cell lines into the armpits of nude mice. Cells were inoculated in an amount of 1×10^6, and after formation of the transplanted tumors by inoculation, the cells were passed 3 generations in nude mice before use. The vigorous growth of tumor tissue was cut into approximate 1.5 mm^3, and homogenized under sterile conditions, to prepare 1×10^7/mL of cell suspension. 0.1 mL of cell suspension was subcutaneously inoculated into the right armpit of nude mice. For transplanted tumors in nude mice, the diameter of the transplanted tumor was measured with vernier caliper. After the tumor grew to 100 mm^3, the animals were randomly divided into groups, with 6 animals in each group. Using the method of measuring tumor diameter, the anti-tumor effect of test compound was dynamically observed. Compound 3 was orally administered at 400 mg/kg, once a day, for three weeks; lenvartinib was also orally administered at 10 mg/kg, once a day, for two weeks. The measurement frequency of tumor diameter was once every three days. The animals in the negative control group were orally given an equal amount of physiological saline. The effect of combined medicaments was evaluated based on the Q value calculated by the Jin's formula: […]
Ea+b represents the tumor inhibitory rate of the combined medicaments, while Ea and Eb represent the tumor inhibitory rates of medicament A and medicament B, respectively. For example, the Q value of 0.85-1.15 means additive action (+), and the Q value of >1.15 means synergistic action (++).

[2] = system: ocular surface neovascularization; assay: Neovascularization of ocular surface in rats (NaOH cornea model); format: in vivo, SD rats; conditions: 50 μL/eye, 3 times/day, 10 days
Procedure: Four SD rats, regardless of gender, were subjected to single eye modeling, with a total of four eye models. One eye was used as a blank control (untreated group), one eye was used as a model control, one eye was used as treatment group 1, and one eye was used as treatment group 2.
The rats were anesthetized with pentobarbital sodium (25-30 mg/(kg, intraperitoneal injection), and two drops of oxybuprocaine hydrochloride eye drops were administrated to both eyes for ocular surface anesthesia. 30 μL of NaOH solution (1 mol/L) was placed with a pipette on a dry filter paper with a diameter of approximate 3 mm for 10 seconds. The moistened circular filter paper was gently applied to the center of the cornea (covering the corneoscleral margin) of the model eye, and a tight fit was kept for suitable time. The filter paper was removed, and then physiological saline was used to wash the eye, which was rinsed with a needle for 1 minute. After operation, ofloxacin eye ointment was applied to prevent infection (3 times/day, for 5 days).
On the 5th day (D5), neovascularization began to appear, and D5 was the first day of administrating the test compound (d1). Three eye drops were administered daily for 10 consecutive days (d10). […] After completion of the experiment, the rats were euthanized.
Blank control group (untreated group): no any treatment, no modeling, no administration. […]

[3] = system: human lung cancer 95D and human liver cancer Bel7404; assay: Tumor necrosis in vivo, HE staining; design: species or system nude mice; conditions: 400 mg/kg
Procedure: Well growing solid tumors (human lung cancer […]) and human liver cancer Bel7404) were cut into uniform small pieces of approximate 2-3 mm under sterile conditions, and subcutaneously inoculated into the right armpit of each nude mouse using a cannula. 14 days after inoculation, each mouse was treated with compound 6 by oral administration at a dosage of 400 mg/kg (in a dosage by volume of 0.5 mL/20 g body weight), and compound 6 was prepared as a suitable solution with sterile normal saline. At different time points (4 h, 24 h) after administration, the nude mice were killed, and the tumor tissue was dissected and fixed with 10% formalin. The pathological sections were made, followed by HE staining and taking photos, to observe the internal necrosis and cell proliferation within the tumors.

[4] = system: Lewis non-small cell lung cancer; assay: Compound 11 combined with PD-L1, Lewis non-small cell lung cancer model in mice; format: in vivo, C57BL/6 mice; conditions: ip: PD-L1 10 mg/kg, compound 11 200 mg/kg, combination 10 + 200
From the text: Experimental method: The model of transplant tumor in C57BL/6 mice was established by subcutaneously inoculating Lewis non-small cell lung cancer cell lines into the armpits of C57BL/6 mice. Cells were inoculated in an amount of 1×10^6, and after formation of the transplanted tumors by inoculation, the cells were passed 3 generations in C57BL/6 mice before use. The vigorous growth of tumor tissue was cut into approximate 1.5 mm^3, and homogenized under sterile conditions, to prepare 1×10^7/mL of cell suspension. 0.1 mL of cell suspension was subcutaneously inoculated into the right armpit of C57BL/6 mice. For transplanted tumors in C57BL/6 mice, the diameter was measured with vernier caliper. After the tumor grew to 100 mm^3, the animals were randomly divided into groups, with 6 mice in each group. […] The measurement frequency of tumor diameter was once every three days. The dosage by volume was 0.1 mL/20 g. The mice in the negative control group were given an equal amount of physiological saline by intravenous injection.
The effect of combined medicaments was evaluated based on the Q value calculated by Jin's formula: […]
Ea+b represents the tumor inhibitory rate of the combined medicaments, while Ea and Eb represent the tumor inhibitory rates of medicament A and medicament B, respectively.

SMILES: COc1cc(/C=C(/C(=O)O)c2cc(OC)c(OC)c(OC)c2)cc(OC)c1 [Compound 3, (E)-3-(3,5-dimethoxyphenyl)-2-(3,4,5-trimethoxyphenyl)acrylic acid]
RTV (d 21) [1]: 3.54 ± 1.87
Terminal weight [1]: 22.4 ± 0.6 g
Tumor inhibitory rate % [1]: 68.47%

SMILES: COc1ccc(/C=C(/C(=O)O)c2cc(OC)c(OC)c(OC)c2)cc1O [Compound 6, (E)-3-(3-hydroxy-4-methoxyphenyl)-2-(3,4,5-trimethoxyphenyl)acrylic acid]
Vascularization area ([2]; high-dose group, eye drops 25 mg/mL): significantly decreased
Neovascularization of the ocular surface ([2]; treatment groups, eye drops 10 or 25 mg/mL, vs model group): reduced compared to the model group
Internal necrosis within the tumors (HE staining) ([3]; 4 h after oral administration): necrosis began to appear within the tumor tissues
Internal necrosis within the tumors (HE staining) ([3]; 24 h after oral administration): massive necrosis

Terminal weight [4]: 23.1 ± 0.9 g
SMILES: COc1cc(/C(=C\c2cc(O)c(OC)c(O)c2)C(=O)O)cc(OC)c1OC [Compound 11, (E)-3-(3,5-dihydroxy-4-methoxyphenyl)-2-(3,4,5-trimethoxyphenyl)acrylic acid]
RTV (d 18) [4]: 7.62 ± 2.28
Tumor inhibitory rate % [4]: 48.76%
